Measured values published in US10227342B2 (ARIAD PHARMACEUTICALS, INC., priority 2014, dated 2019).

Columns and labels:
Format in all cases: cell-based
[1] = target: human EGFR L858R and T790M double mutation (LT) (Homo sapiens (Human), UniProt P00533, L858R/T790M); assay: Ba/F3-EGFR L858R/T790M cell anti-proliferative assay (CellTiter 96 MTS, 72 h); conditions: Ba/F3-EGFR L858R/T790M cells; for IC50: read-out: EGFR exon 21 L858R and T790M mutation IC50;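 for all read-outs here: Ba/F3 cells carrying the EGFR L858R/T790M double mutant are able to grow without IL-3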
Chain of human EGFR L858R and T790M double mutation (LT) (P00533 25-1210 T790M/L858R): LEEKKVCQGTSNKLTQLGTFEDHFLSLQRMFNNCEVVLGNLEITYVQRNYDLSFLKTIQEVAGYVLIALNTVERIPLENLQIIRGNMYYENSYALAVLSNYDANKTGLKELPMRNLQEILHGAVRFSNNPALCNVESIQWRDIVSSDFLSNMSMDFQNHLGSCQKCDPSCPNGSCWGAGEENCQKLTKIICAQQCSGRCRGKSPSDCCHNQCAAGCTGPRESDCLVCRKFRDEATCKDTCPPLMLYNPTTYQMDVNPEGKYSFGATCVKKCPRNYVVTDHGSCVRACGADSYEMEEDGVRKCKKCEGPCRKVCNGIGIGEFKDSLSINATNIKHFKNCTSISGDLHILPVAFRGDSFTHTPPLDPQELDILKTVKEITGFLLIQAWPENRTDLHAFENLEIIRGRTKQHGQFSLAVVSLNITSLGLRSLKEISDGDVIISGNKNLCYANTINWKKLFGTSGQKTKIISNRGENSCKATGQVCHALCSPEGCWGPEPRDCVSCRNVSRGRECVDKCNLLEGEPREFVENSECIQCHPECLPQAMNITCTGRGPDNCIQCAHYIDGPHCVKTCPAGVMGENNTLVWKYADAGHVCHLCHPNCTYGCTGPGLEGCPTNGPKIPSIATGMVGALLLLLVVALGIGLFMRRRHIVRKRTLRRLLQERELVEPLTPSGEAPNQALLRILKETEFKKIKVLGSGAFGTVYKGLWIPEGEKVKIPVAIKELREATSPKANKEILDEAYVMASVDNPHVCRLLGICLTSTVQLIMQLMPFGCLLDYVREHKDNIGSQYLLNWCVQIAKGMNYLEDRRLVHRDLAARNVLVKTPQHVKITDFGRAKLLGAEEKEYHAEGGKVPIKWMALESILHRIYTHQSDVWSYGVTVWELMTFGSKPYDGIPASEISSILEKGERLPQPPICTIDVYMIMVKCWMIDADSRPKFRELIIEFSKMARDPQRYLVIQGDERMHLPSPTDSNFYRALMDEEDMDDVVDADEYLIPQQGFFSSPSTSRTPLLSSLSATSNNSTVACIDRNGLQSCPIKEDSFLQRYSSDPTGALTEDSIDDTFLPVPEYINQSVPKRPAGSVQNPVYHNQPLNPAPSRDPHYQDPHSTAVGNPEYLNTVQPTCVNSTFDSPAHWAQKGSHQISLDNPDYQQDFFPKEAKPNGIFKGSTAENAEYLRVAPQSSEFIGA
Protocol: An expression vector, pLVX-IRES puro (Clontech) coding for human EGFR L858R and T790M double mutation, was transfected into HEK293 cells by the Trans-Lentiviral ORF Packaging System (Thermo Scientific), to produce virus encoding EGFR L858R and T790M double mutations. […] Ba/F3 cells expressing EGFR L858R and T790M double mutation (named Ba/F3-EGFR L858R/T790M) can proliferate in the absence of IL-3. The anti-proliferative activity of compounds was determined as follows: BaF3-EGFR L858R/T790M cells seeded in 96 well plates (2500 cells/well) were treated with test compound (dissolved in DMSO) at a series of concentrations (4-fold dilution, top concentration: 10,000 nM). The plates were incubated for 72 h in a 37° C. incubator with 5% CO2, and the number of viable cells in each well were measured indirectly by CellTiter 96® Aqueous One Solution Cell Proliferation Assay (Promega; this assay is a colorimetric method for determining the number of viable cells through measurement of their metabolic activity by detection of enzymatic conversion of tetrazolium salts into blue formazan derivatives). Reagent (20 μL) was added into each well, and the plates were returned to the incubator for 2 h. The absorbance in each well was then measured at 490 nm using an Envision plate reader (Perkin Elmer).

[2] = target: human EGFR exon 20 insertion ASV (V769_D770insASV) (Homo sapiens (Human), UniProt P00533, INS769ASV); assay: Ba/F3-EGFR-Exon20-ASV cell anti-proliferative assay (CellTiter 96 MTS, 72 h); conditions: Ba/F3-EGFR-Exon20-ASV cells;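 note: Ba/F3 cells bearing the EGFR exon 20 ASV insertion, a line able to proliferate without IL-3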
Chain of human EGFR exon 20 insertion ASV (V769_D770insASV) (P00533 other isoform, or with tags, fused parts or gaps ins ASV behind 769): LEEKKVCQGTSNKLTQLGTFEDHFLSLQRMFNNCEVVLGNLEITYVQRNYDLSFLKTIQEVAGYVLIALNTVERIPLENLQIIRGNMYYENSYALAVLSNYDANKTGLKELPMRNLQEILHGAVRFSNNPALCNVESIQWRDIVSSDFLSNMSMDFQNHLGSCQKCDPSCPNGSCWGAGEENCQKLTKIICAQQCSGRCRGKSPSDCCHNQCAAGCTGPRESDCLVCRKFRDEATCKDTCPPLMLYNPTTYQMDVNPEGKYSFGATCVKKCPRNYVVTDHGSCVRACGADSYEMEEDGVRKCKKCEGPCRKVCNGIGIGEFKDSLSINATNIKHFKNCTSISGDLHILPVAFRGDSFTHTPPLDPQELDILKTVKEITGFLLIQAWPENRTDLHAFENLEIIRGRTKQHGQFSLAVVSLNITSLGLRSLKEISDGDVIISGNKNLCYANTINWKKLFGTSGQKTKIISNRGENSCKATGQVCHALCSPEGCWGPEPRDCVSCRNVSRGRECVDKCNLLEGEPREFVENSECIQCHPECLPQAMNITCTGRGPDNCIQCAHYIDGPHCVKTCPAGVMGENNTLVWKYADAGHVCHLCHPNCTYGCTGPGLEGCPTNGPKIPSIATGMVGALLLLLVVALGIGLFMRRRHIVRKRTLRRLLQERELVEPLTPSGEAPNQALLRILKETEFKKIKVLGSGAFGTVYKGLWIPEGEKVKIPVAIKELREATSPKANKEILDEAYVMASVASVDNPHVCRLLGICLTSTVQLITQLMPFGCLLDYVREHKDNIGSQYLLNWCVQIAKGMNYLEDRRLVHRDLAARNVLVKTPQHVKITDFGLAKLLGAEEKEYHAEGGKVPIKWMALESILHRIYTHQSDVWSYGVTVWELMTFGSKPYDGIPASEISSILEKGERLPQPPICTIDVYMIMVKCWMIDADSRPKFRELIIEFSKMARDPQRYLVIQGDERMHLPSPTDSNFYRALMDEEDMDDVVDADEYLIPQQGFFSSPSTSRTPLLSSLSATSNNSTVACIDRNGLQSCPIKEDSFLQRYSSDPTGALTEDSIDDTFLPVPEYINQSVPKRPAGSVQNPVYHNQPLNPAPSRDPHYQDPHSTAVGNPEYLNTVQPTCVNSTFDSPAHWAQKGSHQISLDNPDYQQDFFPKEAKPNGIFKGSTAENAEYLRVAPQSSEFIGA

[3] = target: human EGFR exon 20 insertion NPG (H773_V774insNPG) (Homo sapiens, UniProt P00533, INS773NPG, cells depend on it); assay: Ba/F3-EGFR-Exon20-NPG cell anti-proliferative assay (CellTiter 96 MTS, 72 h); conditions: read-out: EGFR exon 20 NPG insertion IC50
[4] = target: Her2 exon 20 YVMA insertion (A775_G776ins YVMA) (Homo sapiens (Human), UniProt P04626, INS775YVMA); assay: Ba/F3-Her2 Exon20 YVMA cell anti-proliferative assay (CellTiter 96 MTS, 72 h); conditions: Ba/F3-Her2 Exon20 YVMA cells
Chain of Her2 exon 20 YVMA insertion (A775_G776ins YVMA) (P04626 other isoform, or with tags, fused parts or gaps ins YVMA behind 775): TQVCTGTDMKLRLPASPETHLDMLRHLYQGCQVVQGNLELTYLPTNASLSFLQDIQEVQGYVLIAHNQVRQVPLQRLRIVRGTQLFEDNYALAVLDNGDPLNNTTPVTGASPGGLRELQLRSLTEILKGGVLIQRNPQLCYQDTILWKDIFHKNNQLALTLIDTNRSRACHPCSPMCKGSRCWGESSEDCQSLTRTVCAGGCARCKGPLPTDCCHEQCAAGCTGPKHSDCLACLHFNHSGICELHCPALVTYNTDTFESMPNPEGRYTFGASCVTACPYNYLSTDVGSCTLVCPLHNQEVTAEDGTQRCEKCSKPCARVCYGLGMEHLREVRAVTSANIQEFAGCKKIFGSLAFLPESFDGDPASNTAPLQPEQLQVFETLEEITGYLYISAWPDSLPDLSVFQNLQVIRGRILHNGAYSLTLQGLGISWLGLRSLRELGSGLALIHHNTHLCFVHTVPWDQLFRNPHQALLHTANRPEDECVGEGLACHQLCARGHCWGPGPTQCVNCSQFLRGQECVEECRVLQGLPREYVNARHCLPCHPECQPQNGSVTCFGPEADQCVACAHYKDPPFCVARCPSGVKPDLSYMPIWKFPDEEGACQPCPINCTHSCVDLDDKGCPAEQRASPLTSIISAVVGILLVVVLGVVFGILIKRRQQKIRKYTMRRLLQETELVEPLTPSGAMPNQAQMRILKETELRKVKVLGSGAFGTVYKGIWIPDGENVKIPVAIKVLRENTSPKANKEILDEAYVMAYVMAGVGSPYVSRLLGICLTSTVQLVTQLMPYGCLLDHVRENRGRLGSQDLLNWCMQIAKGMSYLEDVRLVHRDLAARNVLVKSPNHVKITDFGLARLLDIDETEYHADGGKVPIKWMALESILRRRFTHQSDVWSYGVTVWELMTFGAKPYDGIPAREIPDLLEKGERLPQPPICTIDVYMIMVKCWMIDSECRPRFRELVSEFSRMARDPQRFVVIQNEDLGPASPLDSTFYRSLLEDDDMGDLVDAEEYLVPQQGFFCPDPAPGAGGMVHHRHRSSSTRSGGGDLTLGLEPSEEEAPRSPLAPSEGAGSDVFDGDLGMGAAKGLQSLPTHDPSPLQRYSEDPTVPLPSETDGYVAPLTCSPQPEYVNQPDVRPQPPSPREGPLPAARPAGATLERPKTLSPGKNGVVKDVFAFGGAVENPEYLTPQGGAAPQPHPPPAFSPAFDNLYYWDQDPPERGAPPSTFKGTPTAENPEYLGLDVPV
Text: Ba/F3 cells expressing Her2 Exon20 YVMA insertions (named Ba/F3-Her2 Exon20 YVMA) can proliferate in the absence of IL-3.

[5] = target: human EGFR E746-A750 deletion and T790M Mutation (DT) (Homo sapiens (Human), UniProt P00533, DEL746-750/T790M); assay: Ba/F3-EGFR-Del/T790M cell anti-proliferative assay (CellTiter 96 MTS, 72 h); conditions: Ba/F3-EGFR-Del/T790M cells; for IC50: read-out: EGFR exon 19 deletion and T790M mutation IC50
Chain of human EGFR E746-A750 deletion and T790M Mutation (DT) (P00533 other isoform, or with tags, fused parts or gaps T790M/del E746-A750): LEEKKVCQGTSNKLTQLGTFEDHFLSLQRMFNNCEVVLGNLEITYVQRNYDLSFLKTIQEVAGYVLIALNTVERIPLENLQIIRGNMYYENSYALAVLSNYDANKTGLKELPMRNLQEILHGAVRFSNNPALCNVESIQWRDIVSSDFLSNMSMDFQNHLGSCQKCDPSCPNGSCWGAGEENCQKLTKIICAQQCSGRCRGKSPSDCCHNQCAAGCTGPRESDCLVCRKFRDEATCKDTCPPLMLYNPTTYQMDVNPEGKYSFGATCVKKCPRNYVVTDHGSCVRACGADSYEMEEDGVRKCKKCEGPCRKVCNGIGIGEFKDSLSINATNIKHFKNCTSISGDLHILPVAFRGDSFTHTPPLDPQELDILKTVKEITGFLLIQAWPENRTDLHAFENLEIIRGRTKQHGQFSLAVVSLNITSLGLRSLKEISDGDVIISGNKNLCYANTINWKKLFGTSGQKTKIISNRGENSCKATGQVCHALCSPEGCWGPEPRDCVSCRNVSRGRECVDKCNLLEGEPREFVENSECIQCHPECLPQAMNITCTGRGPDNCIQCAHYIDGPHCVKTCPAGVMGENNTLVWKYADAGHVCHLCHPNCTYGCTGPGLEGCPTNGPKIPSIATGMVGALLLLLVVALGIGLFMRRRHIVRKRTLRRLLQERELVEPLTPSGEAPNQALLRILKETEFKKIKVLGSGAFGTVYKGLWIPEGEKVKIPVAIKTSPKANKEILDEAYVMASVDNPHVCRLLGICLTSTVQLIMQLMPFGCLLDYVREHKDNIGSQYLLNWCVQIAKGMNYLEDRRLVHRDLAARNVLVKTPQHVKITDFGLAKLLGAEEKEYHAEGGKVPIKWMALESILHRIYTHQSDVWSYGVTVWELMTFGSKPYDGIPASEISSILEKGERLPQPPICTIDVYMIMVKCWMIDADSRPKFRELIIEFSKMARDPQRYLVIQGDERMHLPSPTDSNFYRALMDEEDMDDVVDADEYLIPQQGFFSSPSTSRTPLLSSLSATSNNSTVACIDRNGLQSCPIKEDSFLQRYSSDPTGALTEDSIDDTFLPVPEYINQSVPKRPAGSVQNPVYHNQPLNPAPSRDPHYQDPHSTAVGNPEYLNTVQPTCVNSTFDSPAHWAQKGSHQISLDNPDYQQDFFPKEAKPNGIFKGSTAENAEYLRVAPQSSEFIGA
Protocol: An expression vector, pLVX-IRES puro (Clontech) coding for human EGFR E746-A750 deletion and T790M Mutation, was transfected into HEK293 cells by the Trans-Lentiviral ORF Packaging System (Thermo Scientific), to produce virus encoding EGFR exon 19 deletion and T790M mutations. […] Ba/F3 cells expressing EGFR E746-A750 deletion and T790M Mutation (named Ba/F3-EGFR-Del/T790M) can proliferate in the absence of IL-3. The anti-proliferative activity of compounds was determined as follows: BaF3-EGFR-Del/T790M cells seeded in 96 well plates (2500 cells/well) were treated with test compound (dissolved in DMSO) at a series of concentrations (4-fold dilution, top concentration: 10,000 nM). The plates were incubated for 72 h in a 37° C. incubator with 5% CO2, and the number of viable cells in each well were measured indirectly by CellTiter 96® Aqueous One Solution Cell Proliferation Assay (Promega; this assay is a colorimetric method for determining the number of viable cells through measurement of their metabolic activity by detection of enzymatic conversion of tetrazolium salts into blue formazan derivatives). Reagent (20 μL) was added into each well, and the plates were returned to the incubator for 2 h. The absorbance in each well was then measured at 490 nm using an Envision plate reader (Perkin Elmer).

SMILES | EGFR exon 21 L858R and T790M mutation IC50 [1] | IC50 [2] [nM] | IC50 [3] [nM] | IC50 [4] [nM] | EGFR exon 19 deletion and T790M mutation IC50 [5] | IC50 [1] [nM] | IC50 [5] [nM]
C=CC(=O)Nc1cc(Nc2nccc(-c3c(-c4ccc(OCc5ccccn5)c(Cl)c4)n(C)c4ccccc34)n2)c(OC)cc1N(C)CCN(C)C [Example 5, N-(5-((4-(2-(3-chloro-4-(pyridin-2-ylmethoxy)phenyl)-1-methyl-1H-indol-3-yl)pyrimidin-2-yl)amino)-2-((2-(dimethylamino)ethyl)(methyl)amino)-4-methoxyphenyl)acrylamide] | B (Group B compounds have an IC50 value for the indicated mutant between about 100 to about 500 nM) | 100 to 500 | 100 to 500 | 100 to 500 | B (Group B compounds have an IC50 value for the indicated mutant between about 100 to about 500 nM) | – | –
C=CC(=O)Nc1cc(Nc2nccc(-c3c(-c4ccccc4)n(C)c4ccccc34)n2)c(OC)cc1N(C)CCN(C)C [Example 7, N-(2-((2-(dimethylamino)ethyl)(methyl)amino)-4-methoxy-5-((4-(1-methyl-2-phenyl-1H-indol-3-yl)pyrimidin-2-yl)amino)phenyl)acrylamide] | – | 100 to 500 | < 100 | 100 to 500 | – | < 100 | < 100
C=CC(=O)Nc1cc(Nc2ncc(C(=O)OCC)c(-c3cn(C)c4ccccc34)n2)c(OC)cc1N(C)CCN(C)C [Example 9, ethyl 2-((5-acrylamido-4-((2-(dimethylamino)ethyl)(methyl)amino)-2-methoxyphenyl)amino)-4-(1-methyl-1H-indol-3-yl)pyrimidine-5-carboxylate] | – | < 100 | < 100 | < 100 | – | < 100 | < 100
C=CC(=O)Nc1cc(Nc2ncc(C(=O)OC(C)C)c(-c3cn(C)c4ccccc34)n2)c(OC)cc1N(C)CCN(C)C [Example 10, isopropyl 2-((5-acrylamido-4-((2-(dimethylamino)ethyl)(methyl)amino)-2-methoxyphenyl)amino)-4-(1-methyl-1H-indol-3-yl)pyrimidine-5-carboxylate] | – | < 100 | < 100 | < 100 | – | < 100 | < 100
C=CC(=O)Nc1cc(Nc2ncc(C(=O)OC(C)C)c(-c3cn(C)c4ccccc34)n2)c(OC)cc1N(C)CC1CCCN1C (stereo not shown) [Example 17, isopropyl 2-((5-acrylamido-2-methoxy-4-(methyl((1-methylpyrrolidin-2-yl)methyl)amino)phenyl)amino)-4-(1-methyl-1H-indol-3-yl)pyrimidine-5-carboxylate] | – | < 100 | < 100 | < 100 | – | < 100 | < 100
C=CC(=O)Nc1cc(Nc2ncc(C(=O)OC(C)C)c(-c3c[nH]c4ccccc34)n2)c(OC)cc1N(C)CCN(C)C [Example 30, isopropyl 2-((5-acrylamido-4-((2-(dimethylamino)ethyl)(methyl)amino)-2-methoxyphenyl)amino)-4-(1H-indol-3-yl)pyrimidine-5-carboxylate] | – | < 100 | < 100 | < 100 | – | < 100 | < 100
C=CC(=O)Nc1cc(Nc2ncc(C(=O)OC(C)C)c(-c3cn(C)c4ncccc34)n2)c(OC)cc1N(C)CCN(C)C [Example 34, isopropyl 2-((5-acrylamido-4-((2-(dimethylamino)ethyl)(methyl)amino)-2-methoxyphenyl)amino)-4-(1-methyl-1H-pyrrolo[2,3-b]pyridin-3-yl)pyrimidine-5-carboxylate] | – | < 100 | < 100 | < 100 | – | < 100 | < 100
C=CC(=O)Nc1cc(Nc2ncc(C(=O)OC(C)C)c(-c3cn(C)c4ccccc34)n2)c(OC)cc1N(C)C[C@@H]1CCCN1C [Example 35, (S)-isopropyl 2-((5-acrylamido-2-methoxy-4-(methyl((1-methylpyrrolidin-2-yl)methyl)amino)phenyl)amino)-4-(1-methyl-1H-indol-3-yl)pyrimidine-5-carboxylate] | – | < 100 | < 100 | < 100 | – | < 100 | < 100
C=CC(=O)Nc1cc(Nc2ncc(C(=O)OC(C)C)c(-c3cn(C)c4ccccc34)n2)c(OC)cc1N(C)C[C@H]1CCCN1C [Example 36, (R)-isopropyl 2-((5-acrylamido-2-methoxy-4-(methyl((1-methylpyrrolidin-2-yl)methyl)amino)phenyl)amino)-4-(1-methyl-1H-indol-3-yl)pyrimidine-5-carboxylate] | – | < 100 | < 100 | < 100 | – | < 100 | < 100
C=CC(=O)Nc1cc(Nc2ncc(Cl)c(-c3cnn4ccccc34)n2)c(OC)cc1N(C)CCN(C)C [Example 52, N-(5-((5-chloro-4-(pyrazolo[1,5-a]pyridin-3-yl)pyrimidin-2-yl)amino)-2-((2-(dimethylamino)ethyl)-(methyl)amino)-4-methoxyphenyl)-acrylamide] | – | < 100 | < 100 | 100 to 500 | – | < 100 | < 100
C=CC(=O)Nc1cc(Nc2ncc(Cl)c(-c3c[nH]c4ccccc34)n2)c(OC)cc1N(C)CCN(C)C [Example 56, N-(5-((5-chloro-4-(1H-indol-3-yl)pyrimidin-2-yl)amino)-2-((2-(dimethylamino)ethyl)(methyl)amino)-4-methoxyphenyl)acrylamide] | – | < 100 | < 100 | < 100 | – | < 100 | < 100
C=CC(=O)Nc1cc(Nc2ncc(C(=O)OC(C)C)c(-c3cn(C)c4ccccc34)n2)c(OC)cc1N(C)CCNC [Example 58, isopropyl 2-((5-acrylamido-2-methoxy-4-(methyl(2-(methylamino)ethyl)-amino)phenyl)amino)-4-(1-methyl-1H-indol-3-yl)pyrimidine-5-carboxylate] | – | < 100 | < 100 | < 100 | – | < 100 | < 100
C=CC(=O)Nc1cc(Nc2ncc(C(=O)OC(C)C)c(-c3c[nH]c4ncccc34)n2)c(OC)cc1N(C)CCN(C)C [Example 66, isopropyl 2-((5-acrylamido-4-((2-(dimethylamino)ethyl)(methyl)amino)-2-methoxyphenyl)amino)-4-(1H-pyrrolo[2,3-b]pyridin-3-yl)pyrimidine-5-carboxylate] | – | < 100 | < 100 | < 100 | – | < 100 | < 100
C=CC(=O)Nc1cc(Nc2ncc(C(=O)OC(C)C)c(-c3cn(C)c4ccccc34)n2)c(OC)cc1OCCN(C)C [Example 67, isopropyl 2-((5-acrylamido-4-(2-(dimethylamino)ethoxy)-2-methoxyphenyl)amino)-4-(1-methyl-1H-indol-3-yl)pyrimidine-5-carboxylate] | – | < 100 | < 100 | < 100 | – | < 100 | < 100
C=CC(=O)Nc1cc(Nc2ncc(C(=O)OC(C)C)c(-c3cn(C)c4ccccc34)n2)c(OC)cc1N(C)C[C@@H]1CCCN1 [Example 73] | – | < 100 | < 100 | < 100 | – | < 100 | < 100
C=CC(=O)Nc1cc(Nc2ncc(C(=O)OC(C)C)c(-c3cn(C)c4ncccc34)n2)c(OC)cc1N(C)CCNC [Example 74, isopropyl 2-((5-acrylamido-2-methoxy-4-(methyl(2-(methylamino)ethyl)amino)phenyl)amino)-4-(1-methyl-1H-pyrrolo[2,3-b]pyridin-3-yl)pyrimidine-5-carboxylate] | B (Group B compounds have an IC50 value for the indicated mutant between about 100 to about 500 nM) | < 100 | < 100 | 100 to 500 | – | – | < 100
C=CC(=O)Nc1cc(Nc2ncc(C(=O)OC(C)C)c(-c3cn(CC)c4ccccc34)n2)c(OC)cc1N(C)CCN(C)C [Example 77, isopropyl 2-((5-acrylamido-4-((2-(dimethylamino)ethyl)(methyl)amino)-2-methoxyphenyl)amino)-4-(1-ethyl-1H-indol-3-yl)pyrimidine-5-carboxylate] | – | < 100 | < 100 | < 100 | – | < 100 | < 100
